The source of these data is PMC10545747, “Development of cyclopeptide inhibitors of cGAS targeting protein-DNA interaction and phase separation” (Nature Communications, 2023).

Several values for one entry are separate records, joined by “and”; a condition that tells them apart may be missing. Identical values can stand only once. Square brackets hold non-standard residues; d marks the D form. Peptide text beside a SMILES is read from it. Hyp = O=C(O)[C@@H]1C[C@@H](O)CN1; Orn = NCCC[C@H](N)C(=O)O

The experiment has as its target T1, recombinant human cGAS enzyme (hcGAS-ΔN, residues 147–522) (Homo sapiens, UniProt Q8N884).
T1 construct: N-terminally truncated human cGAS (hcGAS-ΔN, residues 147–522); 6xHis-SUMO (N, cleaved yes); made in house; host or cells: Escherichia coli BL21 (DE3)
The experiment is described as follows: RNA-based fluorescent biosensor assay of cGAS activity (2',3'-cGAMP formation), in vitro screening. The conditions noted are these: for Remaining activity (%), Fig. 1a source data / remaining activity at 20 µM: 20 μM, replicate values; for remaining activity at 20 µM: read-out: Remaining activity (%), Fig. 1a source data; for inhibition at 20 µM / Inhibition %: peptides screened at 20 μM, Supplementary Table 1 / Fig. S5b; for inhibition at 20 µM: read-out: Inhibition %. The class given is biochemical. An excerpt:
To screen direct cGAS inhibitors targeting protein-DNA interface from our developed focused library of macrocyclic peptides, we applied an RNA-based fluorescent biosensor for 2’,3’-cGAMP to detect cGAS activity in vitro (Supplementary Fig. 1a)[49]. The formation of 2’,3’-cGAMP from ATP and GTP was catalyzed by recombinant human cGAS enzyme (hcGAS-ΔN, residues 147–522, Supplementary Fig. 1b) in the presence of ISD (interferon stimulatory DNA, a 45-bp dsDNA), which was readily quantified by the RNA-based fluorescent biosensor and was further confirmed by ion exchange chromatography (Supplementary Fig. 1c). […] Subsequently, a total of 90 macrocyclic peptides were screened at a concentration of 20 μM (Fig. 1a and Supplementary Fig. 1e), and 4 hits (XQ2, XQ8, XQ19, and XQ46) were obtained for further testing at a cut-off of 40% inhibition (Supplementary Table 1). To evaluate the inhibitory effect of the hits against cGAS in cells, we employed real-time quantitative PCR (qPCR) to examine mRNA levels of IFNΒ1 in THP1 cells. The reported cGAS inhibitor RU.521 was used as the positive control, and the non-active peptide XQ28 in the screening assay was used as the negative control. […] The inhibition of cGAS by these hits was further confirmed in the reporter cell line THP1-Lucia ISG (Invivogen) that expresses secreted luciferase induced by an IRF3-inducible ISG54 promoter (Fig. 1c). The discrepancy between the inhibitory effect of the hits in protein and cellular assays may be attributed to their different cellular permeability.
The high-throughput screening (HTS) experiments of cGAS activity are based on the method previously described. To initiate the enzyme reaction, ISD was added to the reaction solution (40 mM Tris-HCl, pH 7.5, 100 mM NaCl, 10 mM MgCl2) containing hcGAS-ΔN, ATP (Sangon Biotech, Cat# A600311) and GTP (Sangon Biotech, Cat# A620332) in a total volume of 20 ul with the final concentration of 0.5 μM, 1.5 μM, 1 mM, 1 mM, respectively, and incubated for 2 h at 37 °C. For HTS experiments, compounds were added to the same reaction conditions as described above with the final concentration of 20 μM. Z’ factors were calculated from three replicates in the 384-well plate.

T1 sequence (Q8N884 147-522, stated change not applied): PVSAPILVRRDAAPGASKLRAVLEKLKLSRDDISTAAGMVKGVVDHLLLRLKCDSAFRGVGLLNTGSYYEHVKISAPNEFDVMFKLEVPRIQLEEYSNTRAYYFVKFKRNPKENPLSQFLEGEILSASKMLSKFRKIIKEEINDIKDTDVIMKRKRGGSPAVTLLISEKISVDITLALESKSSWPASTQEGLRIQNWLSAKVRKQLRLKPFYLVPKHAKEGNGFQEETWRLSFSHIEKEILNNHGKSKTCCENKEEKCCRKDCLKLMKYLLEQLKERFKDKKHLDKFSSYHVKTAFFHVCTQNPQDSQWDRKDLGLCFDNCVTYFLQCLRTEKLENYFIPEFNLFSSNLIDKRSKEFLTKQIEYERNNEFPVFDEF

Broadly, the remaining activity is the signal under treatment as a percentage of the control signal. The term inhibition denotes the change of the read-out against control, counted positive when it falls. Consider `CC(C)C[C@@H]1NC(=O)[C@H](CCCNC(=N)N)NC(=O)[C@H](C(C)C)NC(=O)[C@@H]2CCCN2C(=O)[C@@H](Cc2ccccc2)NC(=O)[C@H](CC(C)C)NC(=O)[C@H](CCCNC(=N)N)NC(=O)[C@H](C(C)C)NC(=O)[C@@H]2CCCN2C(=O)[C@@H](C)NC1=O` [XQ1, Cyclo (LaPVRLfPVR)] (cyclo(L[dA]PVRL[dF]PVR)), for which the “Remaining activity (%), Fig. 1a source data” value (“Remaining activity (%)” below) is 76.5914% and 76.7702%; the remaining activity at 20 µM turned out to be 76.9%; the inhibition at 20 µM came out at 23%.
Consider Cyclo (AaRVDLfPVR) [XQ87], for which the Inhibition % was found to be 0%.
Still for that read-out and setting: with Cyclo (Lf(Hyp)TDAfPVR) [XQ88] the figure was 7%.
On to `CC(C)C[C@@H]1NC(=O)[C@H](CCCNC(=N)N)NC(=O)[C@H]([C@@H](C)O)NC(=O)[C@@H]2CCCN2C(=O)[C@@H](C(C)C)NC(=O)[C@H](CC(C)C)NC(=O)[C@H](CCCNC(=N)N)NC(=O)[C@H]([C@@H](C)O)NC(=O)[C@@H]2CCCN2C(=O)[C@@H](Cc2ccccc2)NC1=O` [XQ31, Cyclo (LvPTRLfPTR)] (cyclo(L[dF]PTRL[dV]PTR)), for which the “Remaining activity (%)” value is 70.1575% and 70.5622%; the remaining activity at 20 µM turned out to be 69.4%; the inhibition at 20 µM stood at 30%.
In the case of `CC(C)C[C@@H]1NC(=O)[C@H](CCCNC(=N)N)NC(=O)[C@H](C(C)C)NC(=O)[C@@H]2CCCN2C(=O)[C@@H](Cc2ccccc2)NC(=O)[C@H](CC(C)C)NC(=O)[C@H](CC(=O)O)NC(=O)[C@H](CCC(N)=O)NC(=O)[C@@H]2CCCN2C(=O)[C@@H](Cc2ccccc2)NC1=O` [XQ68, Cyclo (LfPQDLfPVR)] (cyclo(DL[dF]PVRL[dF]PQ)), the inhibition at 20 µM was found to be 0%.
As for `CC(C)C[C@@H]1NC(=O)[C@H](CCCN)NC(=O)[C@H](C(C)C)NC(=O)[C@@H]2CCCN2C(=O)[C@@H](Cc2ccccc2)NC(=O)[C@H](CC(C)C)NC(=O)[C@H](CCCN)NC(=O)[C@H](C(C)C)NC(=O)[C@@H]2CCCN2C(=O)[C@@H](Cc2ccccc2)NC1=O` [XQ39, Cyclo (LfPV(Orn)LfPV(Orn))] (cyclo(V[Orn]L[dF]PV[Orn]L[dF]P)), the “Remaining activity (%)” value was 96.3833% and 97.8523%; the remaining activity at 20 µM is 97.2%; the inhibition at 20 µM amounted to 3%.
For `CC(C)C[C@@H]1NC(=O)[C@H](CCCNC(=N)N)NC(=O)[C@H](C(C)C)NC(=O)[C@@H]2C[C@@H](O)CN2C(=O)[C@@H](Cc2ccccc2)NC(=O)[C@H](CC(C)C)NC(=O)[C@H](CCCNC(=N)N)NC(=O)[C@H](C(C)C)NC(=O)[C@@H]2C[C@@H](O)CN2C(=O)[C@@H](Cc2ccccc2)NC1=O` [XQ12, Cyclo (Lf(Hyp)VRLf(Hyp)VR)] (cyclo([Hyp]VRL[dF][Hyp]VRL[dF])), the “Remaining activity (%)” value was 93.4229% and 93.3308%; the remaining activity at 20 µM is 93.7%; the inhibition at 20 µM amounted to 7%.
Consider `CC(C)C[C@@H]1NC(=O)[C@H](CCCNC(=N)N)NC(=O)[C@H](C(C)C)NC(=O)[C@@H]2CCCN2C(=O)[C@@H](Cc2ccccc2)NC(=O)[C@H](C)NC(=O)[C@H](CC(C)C)NC(=O)[C@H](C(C)C)NC(=O)[C@@H]2CCCN2C(=O)[C@@H](Cc2ccccc2)NC1=O` [XQ50, Cyclo (LfPVLAfPVR)] (cyclo(A[dF]PVRL[dF]PVL)), for which the inhibition at 20 µM stood at 0%.
With `CC(C)C[C@@H]1NC(=O)[C@H](CCCNC(=N)N)NC(=O)[C@H](C(C)C)NC(=O)[C@@H]2CCCN2C(=O)[C@@H](Cc2ccccc2)NC(=O)[C@H](CC(C)C)NC(=O)[C@H](CCCNC(=N)N)NC(=O)[C@H](C(C)C)NC(=O)[C@@H]2CCCN2C(=O)[C@@H](Cc2ccccc2)NC1=O` [XQ38, Cyclo (LfPVRLfPVR)] (cyclo(L[dF]PVRL[dF]PVR)), the “Remaining activity (%)” value is 112.545% and 112.328%; the remaining activity at 20 µM worked out at 113%; the inhibition at 20 µM stood at 0%.
With Cyclo (LfRADAfPVR) [XQ83], the Inhibition % was determined as 0%.
